Data from patent publication US20010014682A1, “Fibrinogen receptor antagonists” (SmithKline Beecham Corporation, priority 1997, published 2001).

Molecular target: T1, fibrinogen receptor (GPIIb-IIIa) (Homo sapiens, UniProt P05106+P08514)
T1 construct: The lectin-retained GPIIb-IIIa was eluted with buffer A containing 10% dextrose; tissue Red Cross; host or cells: human platelets
Assay: Competitive binding to GPIIb-IIIa using [3H]-SK&F-107260 as RGD-type ligand
Conditions: read-out: Ki for inhibition of [3H]-SK&F 107260 binding

T1 sequence (P08514 32-887 limits assumed): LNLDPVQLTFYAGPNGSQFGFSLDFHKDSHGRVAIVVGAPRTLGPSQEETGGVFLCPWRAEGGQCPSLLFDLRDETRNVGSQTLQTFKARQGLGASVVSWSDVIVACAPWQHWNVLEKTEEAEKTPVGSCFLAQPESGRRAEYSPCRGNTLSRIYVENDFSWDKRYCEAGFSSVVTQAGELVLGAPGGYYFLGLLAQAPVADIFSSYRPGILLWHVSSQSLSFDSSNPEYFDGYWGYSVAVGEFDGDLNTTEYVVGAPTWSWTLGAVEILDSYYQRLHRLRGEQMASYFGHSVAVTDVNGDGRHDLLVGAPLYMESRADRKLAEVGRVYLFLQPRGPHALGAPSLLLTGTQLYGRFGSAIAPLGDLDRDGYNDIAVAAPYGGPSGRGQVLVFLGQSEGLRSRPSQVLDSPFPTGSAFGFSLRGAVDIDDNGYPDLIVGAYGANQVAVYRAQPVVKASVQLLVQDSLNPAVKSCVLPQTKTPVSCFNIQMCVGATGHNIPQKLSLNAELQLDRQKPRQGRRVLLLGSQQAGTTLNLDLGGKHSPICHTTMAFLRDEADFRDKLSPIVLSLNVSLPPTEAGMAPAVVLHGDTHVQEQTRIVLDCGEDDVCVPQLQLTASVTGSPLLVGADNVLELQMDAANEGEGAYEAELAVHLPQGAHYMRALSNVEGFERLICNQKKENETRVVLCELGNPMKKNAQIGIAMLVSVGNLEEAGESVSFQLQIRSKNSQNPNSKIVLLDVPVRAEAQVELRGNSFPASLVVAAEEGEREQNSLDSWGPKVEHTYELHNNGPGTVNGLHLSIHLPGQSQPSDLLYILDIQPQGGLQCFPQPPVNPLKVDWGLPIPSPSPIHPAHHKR
T1 sequence (P08514 891-1039 limits assumed): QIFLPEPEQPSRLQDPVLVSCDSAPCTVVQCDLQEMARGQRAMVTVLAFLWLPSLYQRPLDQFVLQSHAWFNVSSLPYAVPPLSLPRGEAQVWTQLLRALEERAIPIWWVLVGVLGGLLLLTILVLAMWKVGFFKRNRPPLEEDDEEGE
T1 sequence (P05106 27-788): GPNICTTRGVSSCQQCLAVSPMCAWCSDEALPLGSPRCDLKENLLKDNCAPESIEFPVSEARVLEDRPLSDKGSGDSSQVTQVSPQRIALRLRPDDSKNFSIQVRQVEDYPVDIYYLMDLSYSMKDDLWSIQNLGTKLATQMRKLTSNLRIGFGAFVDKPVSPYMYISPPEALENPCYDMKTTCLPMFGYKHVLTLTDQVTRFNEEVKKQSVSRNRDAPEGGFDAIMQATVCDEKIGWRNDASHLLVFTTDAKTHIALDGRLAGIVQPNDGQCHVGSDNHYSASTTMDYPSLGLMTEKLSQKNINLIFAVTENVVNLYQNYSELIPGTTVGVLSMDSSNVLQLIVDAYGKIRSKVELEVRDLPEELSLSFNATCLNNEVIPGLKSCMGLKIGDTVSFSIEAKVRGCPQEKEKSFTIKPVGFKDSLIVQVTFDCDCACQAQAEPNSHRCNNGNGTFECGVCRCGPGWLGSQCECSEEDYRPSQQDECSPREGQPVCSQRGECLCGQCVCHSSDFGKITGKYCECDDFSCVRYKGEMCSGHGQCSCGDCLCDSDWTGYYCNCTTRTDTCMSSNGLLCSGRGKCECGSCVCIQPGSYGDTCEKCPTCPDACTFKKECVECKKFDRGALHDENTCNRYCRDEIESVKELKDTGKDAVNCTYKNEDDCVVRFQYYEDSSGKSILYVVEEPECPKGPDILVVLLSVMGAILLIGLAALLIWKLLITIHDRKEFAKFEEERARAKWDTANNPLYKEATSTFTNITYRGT

A Ki of about 3.5 nM was found for `O=C(Nc1ccc(N2CCNCC2)cc1)C1CCN(C(C(=O)O)c2ccccc2)CC1` (stereo not shown) [Example 1, 4-[(4-(1-piperizinyl)phenyl)aminocarbonyl]-1-piperidine-1-phenylacetic Acid] in this work.
